# Data reported in patent publication US11980596B2 (priority 2017, dated 2024).
# Several values for one entry are separate records, joined by “and”; a condition that tells them apart may be missing. Identical values can stand only once. Entries after “also recorded” stand apart in the source; their conditions may differ. Counter-ions that a name gives are not always drawn. Marks after values point to notes of the source that are not given here.
# Experiments:
# [1] = Embryo-fetal toxicity, intranasal racemic ketamine, pregnant rats; format: in vivo, rat; details: female, rat, in vivo, inhaled or intranasal; intranasal; period of organogenesis
# Protocol: (§1) Racemic ketamine was administered intranasally to pregnant rats during the period of organogenesis at doses of 15, 50, and 150 mg/kg/day. The No Observed Adverse Effect level (NOAEL) for embryo-fetal toxicity in rats was the highest dose of 150 mg/kg/day. […] In pregnant rabbits, racemic ketamine was administered intranasally from gestational day 6 to 18 at doses of 10, 30, and 100 mg/kg/day. The high dose was lowered from 100 to 50 mg/kg after 5 days of dosing due to excessive mortality in the pregnant rabbits.
# [2] = tested on: pregnant rats; assay: as above; format: in vivo, rat; details: estimating 50% of the exposure to be from esketamine
# Protocol: as §1
# [3] = tested on: pregnant rabbits; assay: Embryo-fetal reproduction study, intranasal ketamine, pregnant rabbits; format: in vivo, rabbit
# Protocol: as §1
# [4] = tested on: bone marrow; assay: In vivo bone marrow micronucleus test; set-up: species or system mice; details: intraperitoneally-injected
# [5] = Single-dose neuronal toxicity study, subcutaneous racemic ketamine (label); format: in vivo, rat; details: rat, in vivo, sc; single subcutaneous dose; read-out: NOAEL for vacuolation
# Protocol: (§2) In a single-dose neuronal toxicity study in adult rats, subcutaneously administered racemic ketamine caused neuronal vacuolation in layer I of the retrosplenial cortex of the brain without neuronal necrosis at a dose of 60 mg/kg. The NOAEL for vacuolation in this study was 15 mg/kg. […] The relevance of these findings to humans is unknown.
# [6] = tested on: adult rats; assay: as above; format: in vivo, rat
# Protocol: as §2
# [7] = Ames test; details: with or without metabolic activation
# [8] = tested on: adult female Sprague Dawley rats; details: 3 hours after a single intraperitoneal injection (Jevtovic-Todorovic 2000); cited from earlier work
# [9] = tested on: mouse lymphoma; assay: In vitro mouse lymphoma test; details: in the presence of metabolic activation
# [10] = tested on: female Sprague-Dawley rats; assay: Single dose neurotoxicity study: mortality, clinical observations, body weight; format: in vivo, rat; details: for Abnormal respiration, incidence / Abnormal respiration: audible respiration, incidence / Abnormal respiration: bradypnoea, incidence / Ataxia, incidence / Catalepsy, incidence / Chromodacryorrhea, incidence / Decreased general activity, incidence / Decubitus, incidence / Increased general activity, incidence / Narrowed palpebral fissure, incidence / Piloerection, incidence / Salivation (out of normal), incidence: single dose
# Protocol: The injection volume was 5 mL/kg.
# (§3) Body weight and body weight gain were measured daily.
# [11] = tested on: female Sprague-Dawley rats; assay: 14-day repeated dose neurotoxicity study: mortality, clinical observations, body weight; format: in vivo, rat; details: 14 days
# Protocol: as §3
# [12] = Solubility of esketamine HCl
# Protocol: The clinical investigational product is an aqueous solution of the drug substance, esketamine hydrochloride (HCl). This formulation is administered intranasally to patients using a dual nasal spray device, which delivers one spray into each nostril. […] The formulation was stored at 37° C. for stability reasons until dosing.
# [13] = tested on: posterior cingulate gyrus (PCG) and retrosplenial cortex (RSC); assay: Single dose neurotoxicity study: brain histopathology (neuronal necrosis); details: single dose of 72 mg; 48 or 96 hours; hydrochloride
# Protocol: In order to prepare for brain histopathology examination, all main study animals were perfused at necropsy. Prior to the perfusion, rats were anesthetized with isoflurane. After injection of 0.1 ml heparin, the blood of the rat was flushed out with a physiological saline solution by intraarterial insertion of a needle in the abdominal aorta. Thereafter the rat was perfused with glutaraldehyde 3% in potassium phosphate 0.09M and 1.4% sucrose.
# The vehicle control, positive control, and esketamine HCl-dosed animals were sacrificed at either 48 hours (i.e., the first 12 or 15 rats per group) or 96 hours after the dose administration time (i.e., the last 12 or 15 rats per group). The brain tissue of the vehicle control-, positive control- and esketamine HCl-treated rats were processed at the same time and handled in the same way in batches of 4 or 5 animals per group.
# Brain tissue was sampled and processed routinely. The trimmed and embedded tissue was sectioned and stained with hematoxylin-eosin (HE). Histoprocessing and staining were carried out in three batches of 4 animals per group (each batch thus containing 4 animals from vehicle control-, positive control- and the three esketamine HCl-treated groups). In the single dose study duplicate brain sections were stained with Fluoro-Jade (FJ).
# All tissues showing gross abnormalities were examined macroscopically. […]
# [14] = tested on: posterior cingulate gyrus (PCG) and retrosplenial cortex (RSC); assay: 14-day repeated dose neurotoxicity study: brain histopathology (neuronal necrosis); details: up to 54 mg/day; 48 hours after the last instillation; hydrochloride
# Protocol: The brain tissue of the vehicle control-, positive control- and esketamine HCl-treated rats were processed at the same time and handled in the same way in batches of 4 animals per group.
# Brain tissue was sampled and processed routinely. The trimmed and embedded tissue was sectioned and stained with hematoxylin-eosin (HE). Histoprocessing and staining were carried out in three batches of 4 animals per group (each batch thus containing 4 animals from vehicle control-, positive control- and the three esketamine HCl-treated groups).
# All tissues showing gross abnormalities were examined macroscopically. Histopathological examination was performed on 7 levels of brain tissue according to Bolon (2013. Toxicol. Pathol. 41(7), 1028-1048) from the vehicle control-, positive control-, and high dose esketamine HCl-treated groups in the single dose study, and in all groups in the repeated dose study.
# The microscopic finding of neuronal necrosis in the PCG/RSC of the brain was graded unilaterally according to the number of necrotic neurons observed over the total length of the PCG/RSC structure visible in the tissue section (usually around 3-5 mm) utilizing the following criteria:
# [15] = Pharmacokinetics of intranasal esketamine in healthy subjects (Example 9)
# Protocol: Blood samples (4 mL each) for determination of esketamine and noresketamine plasma concentrations were collected into the appropriate collection tube (e.g., Vacutainer®) at timepoints 0.00, 0.12, 0.20, 0.37, 0.53, 0.67, 0.83, 1.00, 1.25, 1.50, 2.00, 3.00, 4.00, 6.00, 9.00, 12.00, 18.00, and 24.00 h. The total amount of blood to be drawn for clinical laboratory tests and PK evaluations is approximately 327 mL.
# Plasma samples were analyzed for esketamine and noresketamine concentrations using the validated, specific and sensitive liquid chromatography coupled to tandem mass spectrometry (LC-MS/MS) achiral method of Example 8.
# Serial PK blood samples (4 mL each) were collected for a 24-hour period from each subject (Periods 1, 2, and 3). […] Statistical Methods 1.6.4.1. Sample Size
# The following key parameters of esketamine and noresketamine in plasma were calculated using noncompartmental methods and actual sampling times: Cmax, tmax, AUClast, AUC∞, t1/2,λ, and λz.
# [16] = tested on: glutamate NMDA receptor; assay: Affinity for the NMDA receptor in vitro; format: binding
# [17] = tested on: CYPs and UGTs
# [18] = Clinical pharmacokinetics of esketamine (label)
# [19] = tested on: MDD/TRD subjects; details: 52-week safety study in MDD/TRD subjects (Berman et al., 2011); cited from earlier work
# [20] = estimating 50% of the exposure to be from esketamine
# [21] = noresketamine in plasma after esketamine 28 mg intranasal (A), n = 13
# [22] = noresketamine in plasma after esketamine 56 mg intranasal (B), n = 13
# [23] = noresketamine in plasma after esketamine 56 mg intranasal (B), n = 14
# [24] = noresketamine in plasma after esketamine 84 mg intranasal (C), n = 12
# [25] = noresketamine in plasma after esketamine 84 mg intranasal (C), n = 13
molecule,measurement,setting,value
CNC1(c2ccccc2Cl)CCCCC1=O (racemic) [ketamine],NOAEL,[1],150 mg/kg/day
same,"Esketamine AUC at the NOAEL, multiple of AUC at the MRHD of 84 mg/day",[2],12 times
same,"Esketamine exposure (AUC) at the NOAEL for skeletal malformations, multiple of exposure at MRHD of 84 mg/day",[3],0.3 times
same,Genotoxicity,[4],did not show genotoxic properties
same,NOAEL,[5],15 mg/kg
same,"NOAEL for neuronal necrosis, multiple of clinical exposure at the MRHD, AUC",[6]; [20],10 times
same,"NOAEL for neuronal necrosis, multiple of clinical exposure at the MRHD, Cmax",[6]; [20],16 times
same,"NOAEL for neuronal vacuolation, multiple of clinical exposure at the MRHD, AUC",[6]; [20],1.6 times
same,"NOAEL for neuronal vacuolation, multiple of clinical exposure at the MRHD, Cmax",[6]; [20],4.5 times
same,Dose causing neuronal vacuolation in layer I of the retrosplenial cortex without neuronal necrosis,[6]; single subcutaneous dose,60 mg/kg
same,Mutagenicity,[7],not mutagenic
same,ED50-value for the induction of neuronal vacuolation in the PCG/RSC,[8],47.5 mg/kg body weight
same,Mutagenicity,[9],positive
"CN[C@]1(c2ccccc2Cl)CCCCC1=O [esketamine HCl, (S)-2-(2-chlorophenyl)-2-(methylamino)cyclohexanone hydrochloride]","Abnormal respiration, incidence",[10]; 36 mg intranasal,22/24 ***
same,"Abnormal respiration: audible respiration, incidence",[10]; 36 mg intranasal,10/24 ***
same,"Abnormal respiration: bradypnoea, incidence",[10]; 36 mg intranasal,22/24 ***
same,"Ataxia, incidence",[10]; 36 mg intranasal,24/24 ***
same,"Catalepsy, incidence",[10]; 36 mg intranasal,20/24 ***
same,"Chromodacryorrhea, incidence",[10]; 36 mg intranasal,0/24
same,"Decreased general activity, incidence",[10]; 36 mg intranasal,23/24 ***
same,"Decubitus, incidence",[10]; 36 mg intranasal,23/24 ***
same,"Increased general activity, incidence",[10]; 36 mg intranasal,24/24 ***
same,"Narrowed palpebral fissure, incidence",[10]; 36 mg intranasal,7/24**
same,"Piloerection, incidence",[10]; 36 mg intranasal,0/24
same,"Salivation (out of normal), incidence",[10]; 36 mg intranasal,23/24 ***
same,"Duration of severely decreased activity with decubitus, bradypnea, ptosis and catalepsy (anesthesia)","[10]; 36 mg, after the last instillation",15 to 30 min
same,"Abnormal respiration, incidence",[10]; 54 mg intranasal,22/24 ***
same,"Abnormal respiration: audible respiration, incidence",[10]; 54 mg intranasal,3/24
same,"Abnormal respiration: bradypnoea, incidence",[10]; 54 mg intranasal,21/24 ***
same,"Ataxia, incidence",[10]; 54 mg intranasal,24/24 ***
same,"Catalepsy, incidence",[10]; 54 mg intranasal,23/24 ***
same,"Chromodacryorrhea, incidence",[10]; 54 mg intranasal,0/24
same,"Decreased general activity, incidence",[10]; 54 mg intranasal,23/24 ***
same,"Decubitus, incidence",[10]; 54 mg intranasal,23/24 ***
same,"Increased general activity, incidence",[10]; 54 mg intranasal,24/24 ***
same,"Narrowed palpebral fissure, incidence",[10]; 54 mg intranasal,10/24 ***
same,"Piloerection, incidence",[10]; 54 mg intranasal,0/24
same,"Salivation (out of normal), incidence",[10]; 54 mg intranasal,24/24 ***
same,Duration of ataxia after the decrease in activity had subsided,"[10]; 54 mg, hydrochloride",1.5 to 3 h and 1 to 3 h
same,Duration of ataxia after the decrease in activity had subsided,[10]; 72 mg,≥ 3 h
same,"Abnormal respiration, incidence",[10]; 72 mg intranasal,30/30 ***
same,"Abnormal respiration: audible respiration, incidence",[10]; 72 mg intranasal,2/30
same,"Abnormal respiration: bradypnoea, incidence",[10]; 72 mg intranasal,30/30 ***
same,"Catalepsy, incidence",[10]; 72 mg intranasal,30/30 ***
same,"Chromodacryorrhea, incidence",[10]; 72 mg intranasal,0/30
same,"Decreased general activity, incidence",[10]; 72 mg intranasal,30/30 ***
same,"Decubitus, incidence",[10]; 72 mg intranasal,30/30 ***
same,"Increased general activity, incidence",[10]; 72 mg intranasal,29/30 ***
same,"Narrowed palpebral fissure, incidence",[10]; 72 mg intranasal,22/30 ***
same,"Piloerection, incidence",[10]; 72 mg intranasal,0/30
same,"Salivation (out of normal), incidence",[10]; 72 mg intranasal,29/30 ***
same,"Abnormal respiration, incidence",[11]; 18 mg/day intranasal,2/12
same,"Abnormal respiration: audible respiration, incidence",[11]; 18 mg/day intranasal,2/12
same,"Abnormal respiration: bradypnoea, incidence",[11]; 18 mg/day intranasal,0/12
same,"Ataxia, incidence",[11]; 18 mg/day intranasal,12/12***
same,"Chromodacryorrhea, incidence",[11]; 18 mg/day intranasal,0/12
same,"Decreased general activity, incidence",[11]; 18 mg/day intranasal,5/12
same,"Decubitus, incidence",[11]; 18 mg/day intranasal,0/12
same,"Increased general activity, incidence",[11]; 18 mg/day intranasal,12/12***
same,"Salivation (out of normal), incidence",[11]; 18 mg/day intranasal,12/12***
same,"Abnormal respiration, incidence",[11]; 36 mg/day intranasal,11/12***
same,"Abnormal respiration: audible respiration, incidence",[11]; 36 mg/day intranasal,6/12**
same,"Abnormal respiration: bradypnoea, incidence",[11]; 36 mg/day intranasal,11/12***
same,"Ataxia, incidence",[11]; 36 mg/day intranasal,12/12***
same,"Chromodacryorrhea, incidence",[11]; 36 mg/day intranasal,0/12
same,"Decreased general activity, incidence",[11]; 36 mg/day intranasal,12/12***
same,"Decubitus, incidence",[11]; 36 mg/day intranasal,2/12
same,"Increased general activity, incidence",[11]; 36 mg/day intranasal,12/12***
same,"Salivation (out of normal), incidence",[11]; 36 mg/day intranasal,12/12***
same,"Abnormal respiration, incidence",[11]; 54 mg/day intranasal,12/12***
same,"Abnormal respiration: audible respiration, incidence",[11]; 54 mg/day intranasal,6/12**
same,"Abnormal respiration: bradypnoea, incidence",[11]; 54 mg/day intranasal,12/12***
same,"Ataxia, incidence",[11]; 54 mg/day intranasal,12/12***
same,"Chromodacryorrhea, incidence",[11]; 54 mg/day intranasal,0/12
same,"Decreased general activity, incidence",[11]; 54 mg/day intranasal,12/12***
same,"Decubitus, incidence",[11]; 54 mg/day intranasal,8/12***
same,"Increased general activity, incidence",[11]; 54 mg/day intranasal,12/12***
same,"Salivation (out of normal), incidence",[11]; 54 mg/day intranasal,12/12***
same,"Maximum solubility, as base","[12]; room temperature, pH 4.5, factor 1.15",180 mg esketamine base/mL
same,Solubility,"[12]; water, methanol, ethanol","freely soluble in water and in methanol, and soluble in ethanol"
same,Histopathological lesions in the brain,[13],absent; also recorded: no neuropathological lesions
same,Histopathological lesions in the brain,[14],No histopathological lesions
N[C@]1(c2ccccc2Cl)CCCCC1=O [noresketamine],AUC (AUClast and AUC∞) variability,[15]; noresketamine,17.0% to 21.3
same,Between-subject variability for Cmax,[15]; noresketamine,25.8% to 33.7
same,"AUClast, mean",[15]; [21],454 ng·h/mL
same,"AUC∞, mean",[15]; [21],508 ng·h/mL
same,"Cmax, mean",[15]; [21],92.8 ng/mL
same,"t1/2, mean",[15]; [21],7.74 h
same,"tmax, median",[15]; [21],1.25 h
same,"AUC∞, mean",[15]; [22],924^c h * ng/mL
same,"t1/2, mean",[15]; [22],7.71^c h
same,"AUClast, mean",[15]; [23],851 ng·h/mL
same,"Cmax, mean",[15]; [23],154 ng/mL
same,"tmax, median",[15]; [23],1.50 h
same,"AUC∞, mean",[15]; [24],1392^b h * ng/mL
same,"t1/2, mean",[15]; [24],7.48^b h
same,"AUClast, mean",[15]; [25],1287 ng·h/mL
same,"Cmax, mean",[15]; [25],241 ng/mL
same,"tmax, median",[15]; [25],1.50 h
same,"Metabolite/Parent Ratio, AUC∞","[15]; noresketamine/esketamine, esketamine 28 mg intranasal (A), n = 12",3.80^b
same,Activity at the NMDA receptor relative to esketamine,[16],less affinity
same,Inhibition of CYP3A4,[17],weak reversible inhibition
same,"Brain-to-plasma ratio, times lower than that of esketamine","[18]; human, in vivo",4- to 6 times
same,Mean terminal t1/2,[18]; noresketamine in plasma,approximately 8 hours
OCCOCCN1CCN(C2=Nc3ccccc3Sc3ccccc32)CC1 [quetiapine],Discontinuation rate due to adverse events,[19],23.7%
(+)MK-801 maleate [reference compound],Mortality,"[10]; single subcutaneous dose 1 mg/kg, single dose or repeated dose study",No mortality
